Consider 6 compounds from patent US8378114B2, “N-2-(hetero)arylethylcarboxamide derivative, and pest-controlling agent comprising the same” (Nihon Nohyaku Co., Ltd., priority 2006, dated 2013).

One assay has as its system causal fungus of apple tree scab (Venturia inaequalis). Put plainly: Test on the controlling efficacy against apple tree scab. In kind it is in vivo. Conditions: apple seedling, foliar application, 4-fold concentration 200 ppm, 14 days after inoculation. An excerpt:
A seedling of an apple tree (the variety: Ohrin) grown in a pot was subjected to foliar application with a diluted emulsion of the emulsifiable concentrate of the compound of the present invention prepared in accordance with Formulation Example 1, which diluted emulsion was produced by diluting the concentrate with water to the specifically determined volume. On the following day after the application, the seedling was inoculated by spraying with a spore suspension of the causal fungus of apple tree scab (Venturia inaequalis) as obtained by culture on the PSA medium and maintained at 20° C. under humid conditions. Fourteen days after the inoculation, the protective value (%) was determined in accordance with the equation (1), and the controlling efficacy was assessed according the below-described criteria of judgment. [formula]
For the compound `O=C(NCCc1cccc(C(F)(F)F)c1)c1c(Cl)cccc1Cl` [comparison compound A, 2,6-dichloro-N-[2-{3-(trifluoromethyl)phenyl}ethyl]benzamide], the “controlling efficacy, criteria of judgment (protective value)” value is 0 (Less than 9% in protective value).

For the next assay, the system named is southern root-knot nematode (Meloidogyne incognita). The experiment in a line: Test on the controlling efficacy against southern root-knot nematode. Set-up: key: A: No root knot.; B: Apparently smaller number of root knots than in non-treated section were present.; C: Root knots in the number equivalent to or higher than in non-treated section were present. As to conditions: melon nursery plant, plant foot irrigation, 500 ppm, 8 days after inoculation. In kind it is in vivo. On the procedure: An emulsion prepared by diluting an emulsifiable concentrate of the compound of the present invention, which was prepared in accordance with Formulation Example 1, to 500 ppm was irrigated to the plant foot of a pot-cultivated nursery plant raised from the seed of melon. One day after the irrigation, an aqueous suspension (about 500 nematodes/ml) of southern root-knot nematode was inoculated (soil irrigation) to a treated section and a non-treated section, and the pot was placed in a greenhouse at 25° C. Eight days after the inoculation, the root was washed with water, the number of root knots was counted, and the effect was assessed according to the following criteria of judgment. • Criteria of Judgment • A: No root knot. • B: Apparently smaller number of root knots than in non-treated section were present. • C: Root knots in the number equivalent to or higher than in non-treated section were present.
Regarding `CC(Cc1ccc(Cl)cc1Cl)NC(=O)c1nccnc1Cl` (stereo not drawn) [3′-44], the “effect on number of root knots, criteria of judgment” value was “B”. On the same count and under the same terms, in the case of `O=C(NCC1(c2ccc(Cl)cc2Cl)CC1)c1nccnc1Cl` [3′-43] it was “B”; in that of `O=C(NCCc1ccc(Cl)cc1Cl)c1ccccc1C(F)(F)F` [1-16], “B”; in that of `Cc1nccnc1C(=O)NCCc1ccc(-c2ccc(OC(F)(F)F)cc2)cc1` [3″-48], “B”. The same measure, in the same setting: in the case of `O=C(NCC1(c2ccc(Cl)cc2Cl)CC1)c1ccccc1C(F)(F)F` [1-34] it was “B”.
